Reference: US10167276B2, “Compounds and methods for inhibiting JAK” (Dizal (Jiangsu) Pharmaceutical Co., Ltd., priority 2015, dated 2019)

System: STAT3 phosphorylation in NCI-H1975 cells
Assay: Cellular pSTAT3 assay in NCI-H1975 cells
Assay type: cell-based
Details: Homo sapiens, 2 hours with compound
Procedure: NCI-H1975 cells were plated onto Costar #3701 96 or 384 well tissue-culture treated plates at 5,000 cells/well in 30 uL medium (RPMI, 10% FBS, supplemented with L-glutamine) and incubated overnight at 37° C. in 5% CO2. Phospho STAT3 signal was quantitated utilizing Cell Signaling Technology #7146B Pathscan […] STAT3 antibody pair kit, following manufacturer's instructions.
Cells were dosed with compound and incubated at 37° C. in 5% CO2 for 2 hours, after which medium and compound were aspirated and cells lysed with 35 uL cold 1×Cell Signaling Lysis buffer and chilled at 4° C. for 1-2 hours. Lysate was incubated on STAT3 capture plates at 4° C. overnight, washed 3× with Tris-Buffered Saline with 0.05% Tween® 20 (TBST), then […] STAT3 detection antibody was applied for 2 hours. Following washing with TBST (3×), HRP-secondary antibody was applied for 2 hours. After additional washing, signal was detected using TMB and Stop solution and read at 450 nm using Tecan Infinite M100.

| SMILES | IC50 |
| --- | --- |
| CCOc1nn(C)cc1Nc1ncc(C)c(-c2c[nH]c3c(NC(=O)[C@@H](C)N4CCN(CC)CC4)cccc23)n1 [Example 20, (2R)-N-(3-{2-[(3-ethoxy-1-methyl-1H-pyrazol-4-yl)amino]-5-methylpyrimidin-4-yl}-1H-indol-7-yl)-2-(4-ethylpiperazin-1-yl)propanamide] | 184 nM |
| CCOc1nn(C)cc1Nc1ncc(C)c(-c2c[nH]c3c(NC(=O)[C@@H](C)N4CCN(CCOC)CC4)cccc23)n1 [Example 21, (2R)-N-(3-{2-[(3-ethoxy-1-methyl-1H-pyrazol-4-yl)amino]-5-methylpyrimidin-4-yl}-1H-indol-7-yl)-2-[4-(2-methoxyethyl)piperazin-1-yl]propanamide] | 703 nM |
| CCOc1nn(C)cc1Nc1ncc(C)c(-c2c[nH]c3c(NC(=O)[C@@H](C)N4CCN(C)C[C@@H]4C)cccc23)n1 [Example 22, (2R)-2-[(2S)-2,4-dimethylpiperazin-1-yl]-N-(3-{2-[(3-ethoxy-1-methyl-1H-pyrazol-4-yl)amino]-5-methylpyrimidin-4-yl}-1H-indol-7-yl)propanamide] | 550 nM |
| CCOc1nn(C)cc1Nc1ncc(C)c(-c2c[nH]c3c(NC(=O)[C@@H](C)N4CCN(C)C[C@H]4C)cccc23)n1 [Example 23, (2R)-2-[(2R)-2,4-dimethylpiperazin-1-yl]-N-(3-{2-[(3-ethoxy-1-methyl-1H-pyrazol-4-yl)amino]-5-methylpyrimidin-4-yl}-1H-indol-7-yl)propanamide] | 410 nM |
| CCOc1nn(C)cc1Nc1ncc(C)c(-c2c[nH]c3c(NC(=O)[C@@H](C)N4CCN(C)[C@H](C)C4)cccc23)n1 [Example 24, (2R)-2-[(3R)-3,4-dimethylpiperazin-1-yl]-N-(3-{2-[(3-ethoxy-1-methyl-1H-pyrazol-4-yl)amino]-5-methylpyrimidin-4-yl}-1H-indol-7-yl)propanamide] | 370 nM |
| COc1nn(C)cc1Nc1ncc(F)c(-c2c[nH]c3c(NC(=O)[C@@H](C)N4CCN(C)CC4)cccc23)n1 [Example 25] | 115 nM |
| COc1nn(C)cc1Nc1nccc(-c2c[nH]c3c(NC(=O)[C@@H](C)N4CCN(C)[C@@H](C)C4)cccc23)n1 [Example 26, (2R)-2-[(3S)-3,4-dimethylpiperazin-1-yl]-N-(3-{2-[(3-methoxy-1-methyl-1H-pyrazol-4-yl)amino]pyrimidin-4-yl}-1H-indol-7-yl)propanamide] | 256 nM |
| COCCN1CCN([C@H](C)C(=O)Nc2cccc3c(-c4ccnc(Nc5cn(C)nc5OC)n4)c[nH]c23)CC1 [Example 27, (2R)-2-[4-(2-methoxyethyl)piperazin-1-yl]-N-(3-{2-[(3-methoxy-1-methyl-1H-pyrazol-4-yl)amino]pyrimidin-4-yl}-1H-indol-7-yl)propanamide] | 609 nM |
| CCN1CCN([C@H](C)C(=O)Nc2cccc3c(-c4ccnc(Nc5cn(C)nc5OC)n4)c[nH]c23)CC1 [Example 28, (2R)-2-(4-ethylpiperazin-1-yl)-N-(3-{2-[(3-methoxy-1-methyl-1H-pyrazol-4-yl)amino]pyrimidin-4-yl}-1H-indol-7-yl)propanamide] | 100 nM |
| COc1nn(C)cc1Nc1nccc(-c2c[nH]c3c(NC(=O)[C@@H](C)N4CCN(C)C[C@H]4C)cccc23)n1 [Example 29, (2R)-2-[(2R)-2,4-dimethylpiperazin-1-yl]-N-(3-{2-[(3-methoxy-1-methyl-1H-pyrazol-4-yl)amino]pyrimidin-4-yl}-1H-indol-7-yl)propanamide] | 227 nM |
| COc1nn(C)cc1Nc1nccc(-c2c[nH]c3c(NC(=O)[C@@H](C)N4CCN(C)[C@H](C)C4)cccc23)n1 [Example 30, (2R)-2-[(3R)-3,4-dimethylpiperazin-1-yl]-N-(3-{2-[(3-methoxy-1-methyl-1H-pyrazol-4-yl)amino]pyrimidin-4-yl}-1H-indol-7-yl)propanamide] | 359 nM |
| CCOc1nn(C)cc1Nc1ncc(C)c(-c2c[nH]c3c(NC(=O)[C@@H](C)N4CCN(C)[C@@H](C)C4)cccc23)n1 [Example 31a, (2R)-2-[(3S)-3,4-dimethylpiperazin-1-yl]-N-(3-{2-[(3-ethoxy-1-methyl-1H-pyrazol-4-yl)amino]-5-methylpyrimidin-4-yl}-1H-indol-7-yl)propanamide] | 153 nM |
| CCOc1nn(C)cc1Nc1ncc(C)c(-c2c[nH]c3c(NC(=O)[C@H](C)N4CCN(C)[C@@H](C)C4)cccc23)n1 [Example 31b, (2S)-2-[(3S)-3,4-dimethylpiperazin-1-yl]-N-(3-{2-[(3-ethoxy-1-methyl-1H-pyrazol-4-yl)amino]-5-methylpyrimidin-4-yl}-1H-indol-7-yl)propanamide] | 330 nM |
| COc1nn(C)cc1Nc1ncc(C)c(-c2c[nH]c3c(NC(=O)[C@H](C)N4CCN(C)CC4)cccc23)n1 [Example 33, (2S)-N-{3-[2-[(3-methoxy-1-methyl-1H-pyrazol-4-yl)amino]-5-methylpyrimidin-4-yl}-1H-indol-7-yl)-2-(4-methylpiperaizn-1-yl)propanamide] | 308 nM |
| COc1nn(C)cc1Nc1ncc(C)c(-c2c[nH]c3c(NC(=O)[C@@H](C)N4CCN(C)CC4)cccc23)n1 [Example 34, (2R)-N-(3-{2-[(3-Methoxy-1-methyl-1H-pyrazol-4-yl)amino]-5-methylpyrimidin-4-yl}-1H-indol-7-yl)-2-(4-methylpiperazin-1-yl)propanamide] | 128 nM |
| CCOc1nn(C)cc1Nc1ncc(C)c(-c2c[nH]c3c(NC(=O)[C@@H](C)N4CCN(C)CC4)cccc23)n1 [Example 35, (2R)-N-(3-{2-[(3-ethoxy-1-methyl-1H-pyrazol-4-yl)amino]-5-methylpyrimidin-4-yl}-1H-indol-7-yl)-2-(4-methylpiperazin-1-yl)propanamide] | 153 nM |
| COc1nn(C)cc1Nc1ncc(Cl)c(-c2c[nH]c3c(NC(=O)[C@@H](C)N4CCN(C)CC4)cccc23)n1 [Example 36, (2R)-N-(3-{5-chloro-2-[(3-methoxy-1-methyl-1H-pyrazol-4-yl)amino]pyrimidin-4-yl}-1H-indol-7-yl)-2-(4-methylpiperazin-1-yl)propanamide] | 57.9 nM |
| COc1nn(C)cc1Nc1ncc(Br)c(-c2c[nH]c3c(NC(=O)[C@@H](C)N4CCN(C)CC4)cccc23)n1 [Example 37, (2R)-N-(3-{5-bromo-2-[(3-methoxy-1-methyl-1H-pyrazol-4-yl)amino]pyrimidin-4-yl}-1H-indol-7-yl)-2-(4-methylpiperazin-1-yl)propanamide] | 94.2 nM |
| COc1nn(C)cc1Nc1ncc(C)c(-c2c[nH]c3c(NC(=O)[C@@H](C)N4CCN(C)C[C@H]4C)cccc23)n1 [Example 38, (2R)-2-[(2R)-2,4-dimethylpiperazin-1-yl]-N-(3-{2-[(3-methoxy-1-methyl-1H-pyrazol-4-yl)amino]-5-methylpyrimidin-4-yl}-1H-indol-7-yl)propanamide] | 108 nM |
| CCOc1nn(C)cc1Nc1ncc(F)c(-c2c[nH]c3c(NC(=O)[C@@H](C)N4CCN(C)CC4)cccc23)n1 [Example 39, (2R)-N-(3-{2-[(3-ethoxy-1-methyl-1H-pyrazol-4-yl)amino]-5-fluoropyrimidin-4-yl}-1H-indol-7-yl)-2-(4-methylpiperazin-1-yl)propanamide] | 191 nM |
| CCOc1nn(C)cc1Nc1ncc(Cl)c(-c2c[nH]c3c(NC(=O)[C@@H](C)N4CCN(C)CC4)cccc23)n1 [Example 40, (2R)-N-(3-{5-chloro-2-[(3-ethoxy-1-methyl-1H-pyrazol-4-yl)amino]pyrimidin-4-yl}-1H-indol-7-yl)-2-(4-methylpiperazin-1-yl)propanamide] | 160 nM |
| Cc1cnc(Nc2cn(C)nc2C)nc1-c1c[nH]c2c(NC(=O)[C@@H](C)N3CCN(C)CC3)cccc12 [Example 41, (2R)-N-(3-{2-[(1,3-dimethyl-1H-pyrazol-4-yl)amino]-5-methylpyrimidin-4-yl}-1H-indol-7-yl)-2-(4-methylpiperazin-1-yl)propanamide] | 92.3 nM |
| Cc1cnc(Nc2cn(C)nc2C)nc1-c1c[nH]c2c(NC(=O)[C@H](C)N3CCN(C)CC3)cccc12 [Example 42, (2S)-N-(3-{2-[(1,3-dimethyl-1H-pyrazol-4-yl)amino]-5-methylpyrimidin-4-yl}-1H-indol-7-yl)-2-(4-methylpiperazin-1-yl)propanamide] | 172 nM |
| CC[C@@H](C(=O)Nc1cccc2c(-c3nc(Nc4cn(C)nc4OC)ncc3C)c[nH]c12)N1CCN(C)CC1 [Example 43, (2S)-N-(3-{2-[(3-Methoxy-1-methyl-1H-pyrazol-4-yl)amino]-5-methylpyrimidin-4-yl}-1H-indol-7-yl)-2-(4-methylpiperazin-1-yl)butanamide] | 176 nM |
| CC[C@H](C(=O)Nc1cccc2c(-c3nc(Nc4cn(C)nc4OC)ncc3C)c[nH]c12)N1CCN(C)CC1 [Example 44, (2R)-N-(3-{2-[(3-Methoxy-1-methyl-1H-pyrazol-4-yl)amino]-5-methylpyrimidin-4-yl}-1H-indol-7-yl)-2-(4-methylpiperazin-1-yl)butanamide] | 57.7 nM |
| COC[C@H](C(=O)Nc1cccc2c(-c3nc(Nc4cn(C)nc4OC)ncc3C)c[nH]c12)N1CCN(C)CC1 [Example 45, (2R)-3-methoxy-N-(3-{2-[(3-methoxy-1-methyl-1H-pyrazol-4-yl)amino]-5-methylpyrimidin-4-yl}-1H-indol-7-yl)-2-(4-methylpiperazin-1-yl)propanamide] | 60.3 nM |
| COC[C@@H](C(=O)Nc1cccc2c(-c3nc(Nc4cn(C)nc4OC)ncc3C)c[nH]c12)N1CCN(C)CC1 [Example 46, (2S)-3-methoxy-N-(3-{2-[(3-methoxy-1-methyl-1H-pyrazol-4-yl)amino]-5-methylpyrimidin-4-yl}-1H-indol-7-yl)-2-(4-methylpiperazin-1-yl)propanamide] | 1280 nM |
